Assay in all cases: biochemical
Parameters in all cases: DiscoveRx KINOMEscan active site-directed competition binding; percent of control kinase bound to immobilised ligand

Assay [1] deals with T1, BMX (Homo sapiens, UniProt P51813).
T1 sequence (P51813 1-675): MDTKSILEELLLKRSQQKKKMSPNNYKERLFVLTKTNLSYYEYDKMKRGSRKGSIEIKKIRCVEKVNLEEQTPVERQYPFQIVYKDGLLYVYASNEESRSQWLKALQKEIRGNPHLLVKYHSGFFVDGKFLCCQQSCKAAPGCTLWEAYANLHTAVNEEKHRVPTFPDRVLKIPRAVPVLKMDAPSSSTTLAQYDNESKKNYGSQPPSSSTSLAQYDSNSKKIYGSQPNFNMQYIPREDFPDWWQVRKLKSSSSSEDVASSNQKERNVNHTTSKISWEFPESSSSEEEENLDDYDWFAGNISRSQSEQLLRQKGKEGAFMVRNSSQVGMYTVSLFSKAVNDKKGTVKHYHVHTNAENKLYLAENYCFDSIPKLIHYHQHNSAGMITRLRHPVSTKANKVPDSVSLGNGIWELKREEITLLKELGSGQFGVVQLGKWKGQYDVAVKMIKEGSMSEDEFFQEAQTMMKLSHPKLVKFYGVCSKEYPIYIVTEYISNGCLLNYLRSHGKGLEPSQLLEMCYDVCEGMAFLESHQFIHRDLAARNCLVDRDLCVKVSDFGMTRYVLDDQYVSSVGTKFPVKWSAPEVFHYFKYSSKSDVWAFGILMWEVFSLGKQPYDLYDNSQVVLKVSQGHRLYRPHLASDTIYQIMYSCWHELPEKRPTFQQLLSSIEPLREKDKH

Assay [2] addresses BRAF (Homo sapiens, UniProt P15056).
Assay [3] deals with CAMK1G (Homo sapiens, UniProt Q96NX5).
CAMK1G, sequence (Q96NX5 whole entry): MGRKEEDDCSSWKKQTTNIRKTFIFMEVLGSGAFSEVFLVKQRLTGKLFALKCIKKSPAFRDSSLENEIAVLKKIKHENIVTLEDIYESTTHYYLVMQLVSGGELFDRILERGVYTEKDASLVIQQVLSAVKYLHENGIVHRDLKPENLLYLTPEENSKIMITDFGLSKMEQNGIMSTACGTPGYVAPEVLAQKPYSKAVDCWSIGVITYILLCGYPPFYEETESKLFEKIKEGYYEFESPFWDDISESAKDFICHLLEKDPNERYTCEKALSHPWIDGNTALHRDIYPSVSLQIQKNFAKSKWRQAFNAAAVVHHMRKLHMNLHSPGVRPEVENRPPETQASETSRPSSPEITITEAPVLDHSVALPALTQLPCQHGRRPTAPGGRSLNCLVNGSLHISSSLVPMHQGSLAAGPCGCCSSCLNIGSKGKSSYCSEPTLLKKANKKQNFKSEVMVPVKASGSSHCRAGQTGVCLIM
Assay [4] deals with EPHA5 (Homo sapiens, UniProt P54756).
EPHA5, sequence (P54756 whole entry): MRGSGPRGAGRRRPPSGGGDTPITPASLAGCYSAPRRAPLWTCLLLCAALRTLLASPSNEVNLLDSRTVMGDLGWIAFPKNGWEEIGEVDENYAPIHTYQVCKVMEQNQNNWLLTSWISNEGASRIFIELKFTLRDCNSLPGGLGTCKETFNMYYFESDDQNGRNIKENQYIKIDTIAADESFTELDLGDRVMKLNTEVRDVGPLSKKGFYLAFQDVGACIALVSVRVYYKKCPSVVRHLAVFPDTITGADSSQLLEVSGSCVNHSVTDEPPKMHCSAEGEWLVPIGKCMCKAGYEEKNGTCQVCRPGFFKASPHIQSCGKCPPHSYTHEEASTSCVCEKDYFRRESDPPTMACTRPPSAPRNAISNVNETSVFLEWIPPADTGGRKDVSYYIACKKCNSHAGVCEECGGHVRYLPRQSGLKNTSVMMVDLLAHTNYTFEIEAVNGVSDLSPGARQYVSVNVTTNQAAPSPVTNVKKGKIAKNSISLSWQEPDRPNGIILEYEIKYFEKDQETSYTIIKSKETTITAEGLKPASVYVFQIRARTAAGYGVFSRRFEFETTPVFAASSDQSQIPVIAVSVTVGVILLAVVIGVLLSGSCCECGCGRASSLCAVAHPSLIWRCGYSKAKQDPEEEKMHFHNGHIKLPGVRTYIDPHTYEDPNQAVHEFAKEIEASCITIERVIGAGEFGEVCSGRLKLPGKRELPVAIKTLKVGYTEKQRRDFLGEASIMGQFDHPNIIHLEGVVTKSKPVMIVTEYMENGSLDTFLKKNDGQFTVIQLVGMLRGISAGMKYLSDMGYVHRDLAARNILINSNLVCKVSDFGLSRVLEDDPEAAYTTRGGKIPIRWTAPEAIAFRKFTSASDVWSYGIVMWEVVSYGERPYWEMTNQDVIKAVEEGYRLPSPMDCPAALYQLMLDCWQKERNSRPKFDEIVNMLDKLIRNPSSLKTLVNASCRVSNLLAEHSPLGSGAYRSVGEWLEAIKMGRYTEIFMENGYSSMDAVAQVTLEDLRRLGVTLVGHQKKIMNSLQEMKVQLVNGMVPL
The target in assay [5] is MAST1 (Homo sapiens, UniProt Q9Y2H9).
The target of assay [6] is MET(M1250T) (Homo sapiens, UniProt P08581, M1250T).
MET(M1250T), sequence (P08581 whole entry M1250T): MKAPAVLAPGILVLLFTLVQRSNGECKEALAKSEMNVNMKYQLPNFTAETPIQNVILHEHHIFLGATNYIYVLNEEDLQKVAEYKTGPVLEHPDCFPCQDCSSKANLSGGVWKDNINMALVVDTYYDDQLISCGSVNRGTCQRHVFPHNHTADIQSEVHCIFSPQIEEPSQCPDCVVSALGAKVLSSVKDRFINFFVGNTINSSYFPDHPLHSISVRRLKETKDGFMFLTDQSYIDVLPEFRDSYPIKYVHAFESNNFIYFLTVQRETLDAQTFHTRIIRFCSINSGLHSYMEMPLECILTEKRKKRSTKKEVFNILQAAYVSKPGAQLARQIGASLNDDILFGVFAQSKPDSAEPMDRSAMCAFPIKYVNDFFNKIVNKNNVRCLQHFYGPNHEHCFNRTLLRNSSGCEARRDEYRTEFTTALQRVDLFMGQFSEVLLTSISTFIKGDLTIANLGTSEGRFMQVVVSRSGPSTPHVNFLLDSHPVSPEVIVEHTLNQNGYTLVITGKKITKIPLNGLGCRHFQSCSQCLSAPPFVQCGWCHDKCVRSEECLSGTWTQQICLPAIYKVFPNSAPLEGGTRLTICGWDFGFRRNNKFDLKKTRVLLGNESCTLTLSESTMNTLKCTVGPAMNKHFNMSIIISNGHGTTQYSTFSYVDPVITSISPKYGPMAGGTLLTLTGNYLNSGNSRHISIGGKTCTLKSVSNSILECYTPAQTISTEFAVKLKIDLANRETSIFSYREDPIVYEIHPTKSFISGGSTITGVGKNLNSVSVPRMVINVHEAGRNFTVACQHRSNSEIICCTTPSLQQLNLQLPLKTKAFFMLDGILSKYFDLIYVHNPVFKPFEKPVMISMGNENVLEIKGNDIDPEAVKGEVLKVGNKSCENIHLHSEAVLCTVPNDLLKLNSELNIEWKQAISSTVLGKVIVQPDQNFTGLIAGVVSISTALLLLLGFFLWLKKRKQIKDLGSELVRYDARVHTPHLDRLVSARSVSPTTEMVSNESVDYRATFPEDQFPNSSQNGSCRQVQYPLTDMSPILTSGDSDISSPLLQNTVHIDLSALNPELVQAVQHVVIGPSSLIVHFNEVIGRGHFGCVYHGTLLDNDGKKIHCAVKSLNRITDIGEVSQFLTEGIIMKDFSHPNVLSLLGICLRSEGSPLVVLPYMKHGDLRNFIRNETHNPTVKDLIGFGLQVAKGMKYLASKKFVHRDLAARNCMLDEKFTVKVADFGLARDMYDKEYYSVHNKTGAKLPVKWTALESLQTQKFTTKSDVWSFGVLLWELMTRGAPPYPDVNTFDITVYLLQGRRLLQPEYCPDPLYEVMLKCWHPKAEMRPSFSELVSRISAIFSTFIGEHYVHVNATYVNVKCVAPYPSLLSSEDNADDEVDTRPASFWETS
Assay [7] has as its target T2, PHKG2 (Homo sapiens, UniProt P15735).
T2 sequence (P15735 1-406): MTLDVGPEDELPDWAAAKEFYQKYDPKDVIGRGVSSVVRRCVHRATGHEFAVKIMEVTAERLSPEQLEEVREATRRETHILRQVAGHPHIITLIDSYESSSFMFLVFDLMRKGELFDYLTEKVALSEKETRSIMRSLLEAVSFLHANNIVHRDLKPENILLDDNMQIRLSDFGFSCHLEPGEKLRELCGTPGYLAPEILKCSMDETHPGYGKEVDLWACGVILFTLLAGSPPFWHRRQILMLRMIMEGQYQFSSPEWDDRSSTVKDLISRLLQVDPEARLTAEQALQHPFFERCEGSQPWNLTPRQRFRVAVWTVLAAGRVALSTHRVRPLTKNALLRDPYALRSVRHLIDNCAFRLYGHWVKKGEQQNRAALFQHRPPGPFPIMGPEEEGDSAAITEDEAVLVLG

Assay [8] addresses SIK2 (Homo sapiens, UniProt Q9H0K1).
Setting [9] is: read-out: Rucaparib / %Ctrl @ 10000nM, binding competition, % of control.
The mark [10] stands for this setting: read-out: Talazoparib (BMN 673) / %Ctrl @ 10000nM.
Setting [11] is: read-out: Niraparib (MK-4827) / %Ctrl @ 10000nM.
The mark [12] stands for this setting: read-out: Olaparib / %Ctrl @ 10000nM.

For 4 compounds, percent of control binding results are on record in article PMC7026418, “The kinase polypharmacology landscape of clinical PARP inhibitors” (Scientific Reports, 2020).

Read-outs that look alike come from different tables or passages of the source.

BRAF, sequence (P15056 whole entry): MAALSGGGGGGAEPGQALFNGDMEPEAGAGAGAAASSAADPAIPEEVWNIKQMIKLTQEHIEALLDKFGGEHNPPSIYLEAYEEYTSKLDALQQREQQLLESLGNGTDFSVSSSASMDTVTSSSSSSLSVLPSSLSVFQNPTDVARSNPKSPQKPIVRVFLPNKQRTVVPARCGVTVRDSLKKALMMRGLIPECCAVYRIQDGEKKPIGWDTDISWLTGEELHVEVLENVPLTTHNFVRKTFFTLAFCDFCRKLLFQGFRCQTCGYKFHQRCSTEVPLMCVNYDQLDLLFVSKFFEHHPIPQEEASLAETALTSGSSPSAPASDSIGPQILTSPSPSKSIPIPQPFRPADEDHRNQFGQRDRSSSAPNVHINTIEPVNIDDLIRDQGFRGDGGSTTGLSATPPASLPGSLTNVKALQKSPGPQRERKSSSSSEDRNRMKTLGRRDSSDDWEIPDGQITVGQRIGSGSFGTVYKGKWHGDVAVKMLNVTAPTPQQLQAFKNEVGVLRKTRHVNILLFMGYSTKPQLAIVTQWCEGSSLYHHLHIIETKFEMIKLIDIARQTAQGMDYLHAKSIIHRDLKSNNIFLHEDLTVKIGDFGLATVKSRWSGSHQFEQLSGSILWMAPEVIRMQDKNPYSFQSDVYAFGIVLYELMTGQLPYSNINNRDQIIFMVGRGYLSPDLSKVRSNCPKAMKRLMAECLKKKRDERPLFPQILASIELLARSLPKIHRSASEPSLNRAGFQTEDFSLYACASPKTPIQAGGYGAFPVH
SIK2, sequence (Q9H0K1 whole entry): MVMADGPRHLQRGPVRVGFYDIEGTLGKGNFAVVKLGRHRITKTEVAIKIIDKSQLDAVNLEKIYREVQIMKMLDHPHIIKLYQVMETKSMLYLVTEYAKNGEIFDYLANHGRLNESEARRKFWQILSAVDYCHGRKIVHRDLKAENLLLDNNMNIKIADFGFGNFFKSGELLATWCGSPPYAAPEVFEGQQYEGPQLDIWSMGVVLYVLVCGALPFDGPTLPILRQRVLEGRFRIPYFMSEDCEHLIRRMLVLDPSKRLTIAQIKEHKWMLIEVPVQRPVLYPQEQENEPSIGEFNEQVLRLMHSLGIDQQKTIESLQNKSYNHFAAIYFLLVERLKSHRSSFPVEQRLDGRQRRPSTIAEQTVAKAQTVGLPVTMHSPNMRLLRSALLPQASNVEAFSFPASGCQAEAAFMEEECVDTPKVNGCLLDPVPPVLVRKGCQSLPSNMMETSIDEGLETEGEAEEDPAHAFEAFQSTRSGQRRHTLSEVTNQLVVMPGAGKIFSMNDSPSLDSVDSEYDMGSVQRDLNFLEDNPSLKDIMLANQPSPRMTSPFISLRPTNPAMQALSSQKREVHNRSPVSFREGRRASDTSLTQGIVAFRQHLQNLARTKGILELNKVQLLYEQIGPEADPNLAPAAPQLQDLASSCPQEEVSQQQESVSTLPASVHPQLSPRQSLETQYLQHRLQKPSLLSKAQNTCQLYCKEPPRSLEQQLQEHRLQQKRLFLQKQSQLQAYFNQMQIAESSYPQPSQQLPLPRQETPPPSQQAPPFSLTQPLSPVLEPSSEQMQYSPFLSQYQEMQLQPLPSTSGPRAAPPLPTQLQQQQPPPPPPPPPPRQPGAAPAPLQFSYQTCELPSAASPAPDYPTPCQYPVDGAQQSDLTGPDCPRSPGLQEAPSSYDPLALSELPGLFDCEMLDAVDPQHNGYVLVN

As for `CNCc1ccc(-c2[nH]c3cc(F)cc4c3c2CCNC4=O)cc1` [Rucaparib], the percent of control binding at 10 µM in assay [1] (setting [9]) was 91%; in assay [2] (setting [9]), 66%; in assay [3] (setting [9]), 89%; in assay [4] (setting [9]), 93%; in assay [5] (setting [9]), 79%; in assay [6] (setting [9]), 99%. For the same compound, the results for the percent of control binding at 10 µM in assay [7] (setting [9]) and in assay [8] (setting [9]) were 70% and 96%, respectively.
Consider `Cn1ncnc1[C@H]1c2n[nH]c(=O)c3cc(F)cc(c23)N[C@@H]1c1ccc(F)cc1` [Talazoparib], for which the percent of control binding at 10 µM in assay [1] (setting [10]) turned out to be 100%; in assay [2] (setting [10]), 67%; in assay [3] (setting [10]), 100%; in assay [4] (setting [10]), 96%; in assay [5] (setting [10]), 100%; in assay [6] (setting [10]), 99%. Further, the percent of control binding at 10 µM in assay [7] (setting [10]) worked out at 97%; in assay [8] (setting [10]), 100%.
`NC(=O)c1cccc2cn(-c3ccc([C@@H]4CCCNC4)cc3)nc12` [Niraparib]: the percent of control binding at 10 µM in assay [1] (setting [11]) is 87%; in assay [2] (setting [11]) it was 95%; in assay [3] (setting [11]), 100%; in assay [4] (setting [11]), 94%; in assay [5] (setting [11]) it was 91%; in assay [6] (setting [11]) it was 91%. Besides, the percent of control binding at 10 µM was determined as 87% in assay [7] (setting [11]) and 91% in assay [8] (setting [11]).
On to `O=C(c1cc(Cc2n[nH]c(=O)c3ccccc23)ccc1F)N1CCN(C(=O)C2CC2)CC1` [Olaparib], for which the percent of control binding at 10 µM in assay [1] (setting [12]) came out at 98%; in assay [2] (setting [12]), 76%; in assay [3] (setting [12]) it was 93%; in assay [4] (setting [12]) it was 96%; in assay [5] (setting [12]), 86%; in assay [6] (setting [12]), 99%. For the same compound, the percent of control binding at 10 µM in assay [7] (setting [12]) and in assay [8] (setting [12]) was 100% throughout.
